The target of assay [1] is T1, IsdG (Staphylococcus aureus, UniProt Q7A649). To be noted: cited from earlier work.
The target in assay [2] is T1, IsdG. The assay can be described thus: UV/Vis absorption-detected heme titration. The format is binding.
The target in assay [3] is T2, IsdI (Staphylococcus aureus, UniProt Q7A827). The assay can be described thus: UV/Vis absorption-detected heme titration. Type of assay: binding.
In assay [4] the target is T1, IsdG. The assay can be described thus: Fluorescence-detected heme titration. Type of assay: binding.
The target in assay [5] is T2, IsdI. The assay can be described thus: Fluorescence-detected heme titration. Type of assay: binding.
Assay [6] addresses T1, IsdG. The assay can be described thus: Apomyoglobin competition assay. The format is binding. The conditions noted are these: ratio of koff values, IsdG–heme vs IsdI–heme.
Assay [7] addresses myoglobin. The conditions noted are these: cited from earlier work.
The target in assay [8] is T1, IsdG. The conditions noted are these: UV/Vis titration fitted to Michaelis-Menten model; cited from earlier work.
The target in assay [9] is T2, IsdI. The conditions noted are these: UV/Vis titration fitted to Michaelis-Menten model; cited from earlier work.

Molecules are shown by their SMILES.

T1 sequence (Q7A649 whole entry): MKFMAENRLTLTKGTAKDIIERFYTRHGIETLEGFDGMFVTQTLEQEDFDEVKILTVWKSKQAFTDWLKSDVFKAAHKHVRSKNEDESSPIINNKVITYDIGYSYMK
T2 sequence (Q7A827 whole entry): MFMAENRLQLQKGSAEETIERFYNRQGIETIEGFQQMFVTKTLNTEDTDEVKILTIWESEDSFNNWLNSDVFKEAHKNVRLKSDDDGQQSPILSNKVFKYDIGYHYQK

Turning to `[N-]=[N+]=[N-]` [azide], the “mode of inhibition of IsdG” value in assay [1] was “uncompetitive inhibitors”.

`C=CC1=C(C)c2cc3[n-]c(cc4nc(cc5[n-]c(cc1n2)c(C)c5CCC(=O)O)C(CCC(=O)O)=C4C)c(C)c3C=C.[Fe+3]` [heme]: the equilibrium dissociation constant (Kd) in [2] came out at 34 ± 20 nM; in [3], 15 ± 10 nM; in assay [4], 1.4 ± 0.6 nM; in assay [5], 12.9 ± 1.3 nM. In addition, the “heme binding to IsdG tighter than heme binding to IsdI” value in assay [4] (ratio of fluorescence Kd values, IsdG vs IsdI) is “nine-fold”. In [6], the “rate of heme dissociation from IsdG–heme slower than from IsdI–heme” value is “four-fold”. In assay [7], the “Kd for heme dissociation from myoglobin” value is “femtomolar”. The “Kd for heme, IsdG, as reported in the literature” value in assay [8] is reported as “micromolar”. Also, the “Kd for heme, IsdI, as reported in the literature” value in assay [9] is “micromolar”.

The term Kd denotes the free concentration of one partner at which half of the binding sites on the other are occupied at equilibrium, for simple one-to-one binding.

The record behind these values is PMC5510889 (Metallomics : integrated biometal science, 2017).
